Here are results for 5 compounds from article PMC8150775, “Repositioning Azelnidipine as a Dual Inhibitor Targeting CD47/SIRPα and TIGIT/PVR Pathways for Cancer Immuno-Therapy” (Biomolecules, 2021).

In one experiment the target is T1, CD47/SIRPα interaction (Homo sapiens, UniProt P78324).
T1 construct: purchased ACRO Biosystem SIA-H5251; host or cells: CHOK1-CD47 cells (lenti-viral transfection)
The experiment in a line: Blocking assay by flow cytometry, preliminary screening at a single concentration, CD47/SIRPα. Type of experiment: binding. The note with it: preliminary test, single concentration of 100 μM. The protocol: (§1) The abilities of small molecule inhibitors (SMIs) (purchased from TargetMol, Shanghai, China) to block the binding of SIRPα protein to CHOK1-CD47 cells or PVR protein to CHOK1-TIGIT cells were determined by flow cytometry, as previously reported. The SMIs at indicated concentrations were incubated with Fc-tagged SIRPα or PVR protein for 30 min at 4°C, followed by incubating with the indicated cells for another 30 min. Human SIRPα protein (SIA-H5251, ACRO Biosystem, Beijing, China), mouse SIRPα protein (SIA-M5258, ACRO Biosystem, Beijing, China), human PVR protein (CD5-H82F6, ACRO Biosystem, Beijing, China), and mouse PVR protein (50259-M03H, Sino Biological, Beijing, China) were used. PE-conjugated anti-human IgG antibody was used to detect the Fc protein bind to cells. Cells incubated with the Fc proteins and anti-human IgG antibody without the SMIs serve as the positive control. The mean fluorescent intensity (MFI) of each sample was detected and recorded by a flow cytometry. The blocking efficacy of the SMIs was calculated as the equation: (MFI of the positive control-MFI of the SMI)/MFI of the positive control × 100%.
(§2) The small molecule inhibitor could not only bind to the target; most importantly, it should interfere with the receptor–ligand interactions. Subsequently, the candidate inhibitors were screened by the blocking assays with the established CD47 and TIGIT over-expressing cell lines. The test was initialed with a preliminary screening of the candidates with a single concentration (Figure 2D). Generally, the SMI blocking efficacy to the CD47/SIRPα interaction was much higher than that of the TIGIT/PVR. […] Therefore, the SMI-F11 and SMI-F17 may exert dual blocking effects in the CD47/SIRPα and TIGIT/PVR pathways. Blocking assays with a concentration gradient of the SMI were further performed to validate the preliminary screening. […] The similar blocking assays with the mouse CD47 and TIGIT over-expressing cells were also performed. […] Considering that most pairs of the immune checkpoints interact with the corresponding ligand in parallel forms, the blocking assays with the PD-1/PD-L1 interaction system was also conducted to test the specificity.
(Flow cytometry measures light scatter and fluorescence of single cells or particles in a stream.)

For the next experiment, the target named is T2, TIGIT/PVR interaction (Homo sapiens, UniProt P15151).
T2 construct: purchased ACRO Biosystem CD5-H82F6; host or cells: CHOK1-TIGIT cells (lenti-viral transfection)
T2 sequence (P15151 21-343 limits assumed): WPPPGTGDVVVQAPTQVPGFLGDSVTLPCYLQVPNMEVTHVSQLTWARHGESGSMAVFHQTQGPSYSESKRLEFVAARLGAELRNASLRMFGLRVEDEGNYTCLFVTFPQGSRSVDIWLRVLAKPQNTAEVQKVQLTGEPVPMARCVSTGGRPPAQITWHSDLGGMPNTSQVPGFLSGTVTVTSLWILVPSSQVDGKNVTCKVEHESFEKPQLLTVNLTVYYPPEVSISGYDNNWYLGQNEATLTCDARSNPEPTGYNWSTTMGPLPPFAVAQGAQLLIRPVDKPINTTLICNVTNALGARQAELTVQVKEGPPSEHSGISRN
The experiment in a line: Blocking assay by flow cytometry, preliminary screening at a single concentration, TIGIT/PVR. The experiment is classed as binding. The following applies: preliminary test, single concentration of 100 μM. Here is the method: as §1, §2

The target in the next experiment is T3, human CD47/SIRPα (Homo sapiens, UniProt P78324).
T3 construct: purchased ACRO Biosystem SIA-H5251; host or cells: soluble protein purchased; CD47 on CHOK1-hCD47 cells (lenti-viral transfection)
The experiment in a line: Blocking assay, human SIRPα protein binding to CHOK1-hCD47 cells. The note with it: concentration gradient. Here is the method:
as §1

The target of the next experiment is T4, human TIGIT/PVR (Homo sapiens, UniProt P15151).
T4 construct: purchased ACRO Biosystem CD5-H82F6; host or cells: soluble protein purchased; TIGIT on CHOK1-hTIGIT cells (lenti-viral transfection)
The experiment in a line: Blocking assay, human PVR protein binding to CHOK1-hTIGIT cells. The following applies: concentration gradient. The protocol:
as §1

T1 sequence (P78324 31-370 limits assumed): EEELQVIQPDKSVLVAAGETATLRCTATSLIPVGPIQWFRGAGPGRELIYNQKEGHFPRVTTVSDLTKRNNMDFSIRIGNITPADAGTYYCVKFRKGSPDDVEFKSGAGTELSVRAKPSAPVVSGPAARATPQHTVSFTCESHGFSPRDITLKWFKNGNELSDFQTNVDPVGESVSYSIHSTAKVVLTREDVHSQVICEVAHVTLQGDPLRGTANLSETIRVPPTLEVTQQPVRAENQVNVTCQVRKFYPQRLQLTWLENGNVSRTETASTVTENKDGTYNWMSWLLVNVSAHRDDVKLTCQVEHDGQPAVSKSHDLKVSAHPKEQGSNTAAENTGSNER
T3 sequence (P78324 31-370 limits assumed): as above

With `Cc1cc(O)c(C(=O)N[C@@H](C(=O)N[C@@H]2C(=O)N3C(C(=O)O)=C(CSc4nnnn4C)CS[C@H]23)c2ccc(O)cc2)cn1` [SMI-F12, Cefpiramide acid], at CD47/SIRPα interaction, the “blocking efficacy, CD47/SIRPα interaction” value is given as “more than 50%”.
As to `CCCSc1ccc2nc(NC(=O)OC)[nH]c2c1` [SMI-F16, Albendazole], the “activity in interfering with the TIGIT/PVR interaction” value on TIGIT/PVR interaction is “better activities”.
In the case of `O=C1[C@H](CC[C@H](O)c2ccc(F)cc2)[C@@H](c2ccc(O)cc2)N1c1ccc(F)cc1` [SMI-F17, Ezetimibe], the “blocking efficacy, CD47/SIRPα interaction” value at CD47/SIRPα interaction is “more than 50%”. In addition, the “activity in interfering with the TIGIT/PVR interaction” value at TIGIT/PVR interaction was “better activities”. For the same compound, the “concentration-dependent blocking effect, CD47/SIRPα” value at human CD47/SIRPα is “could not exert blocking effects in a concentration-dependent manner”. Besides, the “concentration-dependent blocking effect, TIGIT/PVR” value on human TIGIT/PVR was “could not exert blocking effects in a concentration-dependent manner”.
On to `Nc1cccc2c1CN(C1CCC(=O)NC1=O)C2=O` (centres unmarked) [SMI-F19, Lenalidomide], for which the “blocking efficacy, CD47/SIRPα interaction” value on CD47/SIRPα interaction was “more than 50%”.
For `COc1cccc(N(C)C(=S)Oc2ccc3c(c2)CCCC3)n1` [SMI-F20, Liranaftate], at TIGIT/PVR interaction, the “activity in interfering with the TIGIT/PVR interaction” value was “better activities”.
